Test results from article PMC13091788 (NPJ Aging, 2026).
Read-outs that look alike come from different tables or passages of the source.

Columns and labels:
[1] = In vivo pharmacokinetics, single oral dose; parameters: species or system mouse; conditions: mice; for AUC(0-inf) / Cmax / Tmax / half-life / CL/F: male, C57BL/6 N, mouse, plasma; for CL/F: read-out: CLtot/F; for time to reach maximum plasma concentration (Cmax): oral, both 10 mg/kg and 100 mg/kg
Protocol: All mouse experiments were approved by and conducted in accordance with the guidelines of the Animal Experiment Committee of the University of Tokyo (permission number: P29-24). The compounds were suspended in 0.5% methylcellulose and orally administered to 8-week-old male C57BL/6 N mice (Oriental Yeast) following an overnight fast. The dosage of the compound was 10 or 100 mg/10 mL/kg. Serial blood samples ( < 50 μL per time point) were collected from the caudal vein of each mouse at 15 and 30 min, and at 1, 2, 4, 6 and 24 h post-dose using EM MYSTAR Hematocrit Capillary treated with heparin (AS ONE). Plasma was obtained by centrifugation of the blood samples. After the final blood sampling at 24 h, the mice were humanely euthanized.
Before pharmacokinetic analyses, plasma concentrations were averaged at each time point. Concentrations below the limit of quantitation were excluded from the analysis. Pharmacokinetic analyses were conducted using PhoenixWinNonlin version 8.3 (Pharsight Corp). The maximum plasma concentrations (Cmax) and times to achieve maximum plasma concentrations (Tmax) were obtained directly from the plasma concentration-time curves. The area under the concentration-time curve from zero to infinity (AUC∞) was obtained using the linear trapezoidal method in the noncompartmental analysis module. The software was allowed to determine the best-fit line for the elimination slope for all calculations. Other parameters such as elimination half-life period (t1/2), the apparent total body clearance CLtot/F, and volume of distribution Vdz/F were further calculated.
An LCMS-8060 instrument equipped with a Shimadzu Nexera series LC system (Shimadzu) was used. Berberrubine and IS were analyzed in multiple reaction monitoring mode under electronspray ionization conditions. The analytical column used was a CAPCELL PAK C18 MGIII (3 μm × 2.0 mm ID × 35 mm; OSAKA SODA) at 50 °C. The gradient mobile phase consisted of 0.1% formic acid in water (mobile phase A) and 0.1% formic acid in acetonitrile (mobile phase B) at a total flow rate of 1 mL/min. The initial mobile phase composition was 10% B, which was held constant for 0.5 min, increased in a linear fashion to 90% B over 1 min, then held constant for 0.8 min, and finally brought back to the initial condition of 10% B over 0.01 min and reequilibrated for 1 min. The transitions (precursor ion > product ion) of berberrubine and IS (methyl testosterone) are 322.11 > 307.1 and 303.1 > 109.1 (positive), respectively.

[2] = parameters: method as in PMID 24593257; conditions: cited from earlier work
C2C12 cells = experiment: Mitochondrial membrane potential (JC-1); format: cell-based, mouse; conditions: C2C12, Q-BRB or AcA-BRB 5 or 10 μM, 48 h
Protocol: Mitochondrial membrane potential was assessed using the JC-1 dye (JC-1, T3168, Thermo Fisher Scientific). Cells cultured in 96-well plates were washed twice with PBS and incubated with 1 μM JC-1 for 30 min at 37 °C in the dark. After incubation, cells were washed with PBS, and fluorescence intensities at 590 nm (red) and 530 nm (green) were measured using a microplate reader. The 590/530 nm fluorescence ratio was calculated and used as an index of mitochondrial membrane potential.

[3] = system: mitochondria isolated from hearts of aged mice; experiment: Oxygen consumption analysis of isolated cardiac mitochondria; format: in vivo, mouse; conditions: AcA-BRB 0.5 mg/mL in drinking water
Protocol: Mouse heart tissue was homogenized in mitochondrial isolation buffer (210 mM mannitol, 70 mM sucrose, 5 mM HEPES-KOH, 1 mM EGTA, 0.5% fatty acid-free BSA, pH 7.2) using a glass-teflon homogenizer. Homogenates were centrifuged at 27,000 × g for 10 min at 4 °C, and the resulting pellets were resuspended in mitochondrial isolation buffer. Samples were centrifuged at 500 × g for 5 min at 4 °C, and the supernatants were collected and centrifuged at 10,000 × g for 5 min at 4 °C. The pellet was then resuspended in mitochondrial isolation buffer and centrifuged for 5 min at 10,000 × g at 4 °C. The resulting pellets were suspended in BSA-free mitochondrial isolation buffer, and mitochondrial protein concentration was determined using the Bio-Rad Protein Assay Dye Reagent (Bio-Rad Laboratories). Samples were then incubated with an equal volume of mitochondrial isolation buffer and subjected to oxygen consumption analysis.
Isolated mitochondria were diluted with mitochondrial assay solution (220 mM mannitol, 70 mM sucrose, 2 mM HEPES-KOH, 1 mM EGTA, 10 mM KH2PO4, 5 mM MgCl2, 0.2% fatty acid-free BSA, 2 mM malate, 10 mM pyruvate, pH 7.2) to 80 μg/mL. […] OCR was measured under basal conditions and after each injection using an XFe24 extracellular flux analyzer (Seahorse Bioscience).

86-week-old aged mice = experiment: Survival analysis in aged mice on normal diet; format: in vivo, mouse; conditions: 0.5 mg/mL in drinking water, from 86 weeks of age
Excerpt: All experimental procedures were approved by the Ethics Review Committee for Animal Experimentation at Kumamoto University, Kumamoto, Japan (approval No. A 2024-083). Procedures followed the guidelines and recommendations outlined by the ILAR Guide for the Care and Use of Laboratory Animals (8th Edition, 2011). Prior to tissue collection, mice were euthanized under isoflurane anesthesia, followed by cervical dislocation to ensure rapid euthanasia, a procedure also employed during sacrifice for tissue harvesting. Euthanasia was performed when animals met the established criteria for humane endpoints, specifically a body weight loss exceeding 20% over a 3-day period or 25% over a 1-week period, in accordance with the Kumamoto University Ethics Review Committee for Animal Experimentation above. All animals fed a normal diet (CE-2, CLEA) were randomly assigned to two groups: tap water only and tap water supplemented with AcA-BRB (0.5 mg/mL). Mice were housed in an animal facility with lighting cycles automatically controlled (12 h light/12 h dark), maintained at a stable temperature of 22 ± 2 °C and a relative humidity of 40–80%. C57BL/6NJcl wild-type (WT) male mice aged 2, 20, and 24 months were used in this study.

SMILES | AUC(0-inf) ([1]; single oral gavage 10 mg/kg) | Cmax ([1]; single oral gavage 10 mg/kg) | Tmax ([1]; single oral gavage 10 mg/kg) | half-life ([1]; single oral gavage 10 mg/kg) | CL/F ([1]; single oral gavage 10 mg/kg) | AUC(0-inf) ([1]; single oral gavage 100 mg/kg) | Cmax ([1]; single oral gavage 100 mg/kg) | Tmax ([1]; single oral gavage 100 mg/kg) | half-life ([1]; single oral gavage 100 mg/kg) | CL/F ([1]; single oral gavage 100 mg/kg) | time to reach maximum plasma concentration (Cmax) [1] | Vdz/F ([1]; single oral gavage 10 mg/kg) | Vdz/F ([1]; single oral gavage 100 mg/kg) | water solubility (literature) [2] | mitochondrial membrane potential (JC-1 590/530 nm) (C2C12 cells) | ROS production (4-HNE in isolated cardiac mitochondria) [3] | OCR of mitochondria isolated from hearts ([3]; vs controls) | survival rate (86-week-old aged mice)
COc1ccc2cc3[n+](cc2c1O)CCc1cc2c(cc1-3)OCO2 [AcA-BRB, berberrubine acetic acid adduct] | 95.7 ng·h/mL | 101 ng/mL | 15 min | 101 min | 1740 mL/min/kg | 2130 ng·h/mL | 3060 ng/mL | 15 min | 259 min | 783 mL/min/kg | ≤ 0.25 h | 253 L/kg | 292 L/kg | – | – | – | – | –
COc1ccc2cc3n(cc-2c1=O)CCc1cc2c(cc1-3)OCO2 [Q-BRB, quinoid-type berberrubine] | 76.5 ng·h/mL | 126 ng/mL | 15 min | 89.4 min | 2180 mL/min/kg | 5110 ng·h/mL | 8340 ng/mL | 15 min | 299 min | 326 mL/min/kg | ≤ 0.25 h | 281 L/kg | 141 L/kg | water-insoluble | – | – | – | –
COc1ccc2cc3[n+](cc2c1O)CCc1cc2c(cc1-3)OCO2 [berberrubine] | – | – | – | – | – | – | – | – | – | – | – | – | – | – | remained unchanged | mild rise | improved | did not significantly affect
